Among the data in patent publication US20260042764A1, “COMPOSITIONS AND METHODS FOR INHIBITION OF KRAS” (TheRas, Inc., priority 2022, published 2026) are IC50 values, retold here.

A value given as a limit tells only on which side of the number the result lay.

Test [1] concerns the target T1, Avi-KRAS G12V (1-169) GppNHp/RAF1 RBD-3xFLAG (52-151) (Homo sapiens, UniProt P01116, G12V).
T1 construct: Avi-KRAS G12V (1-169)
Kind of test: Raf1-KRAS G12V-GppNHP disruption HTRF assay (Biological Example 1). In kind it is binding. To be noted: KRAS G12V, GppNHp-loaded; class symbols. In a few lines:
(§1)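 Read-out is HTRF signal of the KRAS–RAF1 RBD complex, reported as percentage of activity relative to DMSO (100%). Protein mix and detection reagents each incubated 1 h at room temperature with 700 rpm shaking. Buffer: 50 mM Tris pH 7.5, 100 mM NaCl, 5 mM MgCl2, 0.1% BSA, 0.01% Tween, 10% DMSO.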
(In general: In TR-FRET formats the signal depends on donor and acceptor labels being close together.)

A further test deals with GP2d cells (KRAS G12D). Kind of test: Cell-based pERK HTRF assay in GP2d cell (Biological Example 2). To be noted: GP2d, GP2d (KRAS G12D) cells, pERK HTRF; class symbols. The method in brief: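 GP2d (KRAS G12D) cells were plated in DMEM/10% FBS and treated the next day for 60 min with compounds. Dosing used 9-point half-log series starting at 1 μM or 100 nM in 0.25% DMSO. Lysates were read by HTRF pERK (d2/Eu cryptate antibodies) after 4–24 h at room temperature, with excitation at 320 nm and emission at 615 nm.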

For test [2], the target named is T2, Avi-KRAS WT (1-169) GppNHp/RAF1 RBD-3xFLAG (52-151) (Homo sapiens, UniProt P01116).
T2 construct: Avi-KRAS WT (1-169)
T2 sequence (P01116 1-169 isoform P01116-2): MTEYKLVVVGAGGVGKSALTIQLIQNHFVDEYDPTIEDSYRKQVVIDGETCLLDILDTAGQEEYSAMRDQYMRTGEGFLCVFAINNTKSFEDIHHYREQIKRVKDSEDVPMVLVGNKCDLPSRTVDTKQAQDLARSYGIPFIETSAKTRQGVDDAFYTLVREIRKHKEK
Kind of test: Raf1-KRAS WT-GppNHP disruption HTRF assay (Biological Example 1). The settings on record: KRAS WT, GppNHp-loaded; class symbols. In kind it is binding. The method in brief: as §1

The target of test [3] is T3, Avi-KRAS G12R (1-169) GppNHp/RAF1 RBD-3xFLAG (52-151) (Homo sapiens, UniProt P01116, G12R).
T3 construct: Avi-KRAS G12R (1-169)
T3 sequence (P01116 1-169 isoform P01116-2 G12R): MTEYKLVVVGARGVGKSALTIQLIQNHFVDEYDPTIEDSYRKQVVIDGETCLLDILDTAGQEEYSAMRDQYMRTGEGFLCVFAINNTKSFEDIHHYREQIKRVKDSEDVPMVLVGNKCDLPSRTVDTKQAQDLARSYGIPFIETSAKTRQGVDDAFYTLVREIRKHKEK
Kind of test: Raf1-KRAS G12R-GppNHP disruption HTRF assay (Biological Example 1). In kind it is binding. To be noted: KRAS G12R, GppNHp-loaded; class symbols. The method in brief: as §1

The next test relates to SW620 cells (KRAS G12V). Kind of test: Cell-based pERK HTRF assay in SW620 cell (Biological Example 4). The settings on record: Homo sapiens, SW-620, SW620 (KRAS G12V) cells, pERK HTRF; class symbols. In a few lines: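 SW620 (KRAS G12V) cells seeded at 3×10^4/well in RPMI, 10% FBS, then treated next day for 4 h with a 9-point half-log series from 1 μM top (0.25% DMSO). Lysates analyzed for pERK by HTRF (Eu cryptate/d2 antibodies, 4–24 h at room temperature), excitation 320 nm, emission 615 nm.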

The target in test [4] is T4, Avi-KRAS G12D (1-169) GppNHp/RAF1 RBD-3xFLAG (52-151) (Homo sapiens, UniProt P01116, G12D).
T4 construct: Avi-KRAS G12D (1-169)
T4 sequence (P01116 1-169 isoform P01116-2 G12D): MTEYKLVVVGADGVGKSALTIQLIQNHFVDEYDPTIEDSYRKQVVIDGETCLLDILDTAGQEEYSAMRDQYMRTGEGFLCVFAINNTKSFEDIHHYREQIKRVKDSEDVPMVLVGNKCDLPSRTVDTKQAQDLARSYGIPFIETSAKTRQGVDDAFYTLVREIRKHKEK
The test is described as follows: Raf1-KRAS G12D-GppNHP disruption HTRF assay (Biological Example 1). The format is binding. The settings on record: KRAS G12D, GppNHp-loaded; class symbols. The method in brief: as §1

T1 sequence (P01116 1-169 isoform P01116-2 G12V): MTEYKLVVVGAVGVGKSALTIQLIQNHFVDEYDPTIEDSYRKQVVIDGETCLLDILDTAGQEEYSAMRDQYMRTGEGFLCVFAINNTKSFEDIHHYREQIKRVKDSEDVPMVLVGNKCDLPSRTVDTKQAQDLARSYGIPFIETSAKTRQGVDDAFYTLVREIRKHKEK

In the case of `CCN1CC[C@@H](N(CC)c2nc(OC[C@@]34CCCN3C[C@H](F)C4)nc3c(F)c(-c4ccc(F)c5sc(N)c(C#N)c45)c(C(F)(F)F)cc23)C1=O` (atropisomer, axis not shown) [Compound 695], the IC50 (in general, the point on the concentration scale where inhibition reaches its midpoint) in test [1] was 100 to 1000 nM; in the test with GP2d cells (KRAS G12D), less than 100 nM; in test [2], 100 to 1000 nM; in test [3] it was 100 to 1000 nM; with SW620 cells (KRAS G12V) it was less than 100 nM; in test [4], 100 to 1000 nM.

Consider `CN(Cc1cccnc1)c1nc(OC[C@@]23CCCN2C[C@H](F)C3)nc2c(F)c(-c3ccc(F)c4sc(N)c(C#N)c34)c(C(F)(F)F)cc12` (atropisomer, axis not shown) [Compound 698], for which the IC50 is 100 to 1000 nM in test [1]; less than 100 nM with GP2d cells (KRAS G12D); 100 to 1000 nM in test [2]; 100 to 1000 nM in test [3]; less than 100 nM in the test on SW620 cells (KRAS G12V); 100 to 1000 nM in test [4].

For the compound `CCN1C[C@H](N(CC)c2nc(OC[C@@]34CCCN3C[C@H](F)C4)nc3c(F)c(-c4ccc(F)c5sc(N)c(C#N)c45)c(C(F)(F)F)cc23)CC1=O` (atropisomer, axis not shown) [Compound 699], the IC50 was 100 to 1000 nM in test [1]; less than 100 nM with GP2d cells (KRAS G12D); 100 to 1000 nM in test [2]; 100 to 1000 nM in test [3]; less than 100 nM with SW620 cells (KRAS G12V); 100 to 1000 nM in test [4].

For the compound `[2H]C([2H])([2H])C([2H])(C(=O)N1CC[C@H](N(CC)c2nc(OC[C@@]34CCCN3C[C@H](F)C4)nc3c(F)c(-c4ccc(F)c5sc(N)c(C#N)c45)c(C(F)(F)F)cc23)C1)C([2H])([2H])[2H]` (atropisomer, axis not shown) [Compound 707], the IC50 (in test [1]; with GP2d cells (KRAS G12D); in test [2]; in test [3]; in the test with SW620 cells (KRAS G12V); in test [4]) was less than 100 nM each time.

`CCN(c1nc(OC[C@@]23CCCN2C[C@H](F)C3)nc2c(F)c(-c3ccc(F)c4sc(N)c(C#N)c34)c(C(F)(F)F)cc12)[C@H]1CCN(C(=O)c2cnco2)C1` (atropisomer, axis not shown) [Compound 708]: the half-maximal inhibitory concentration (IC50) (in test [1]; with GP2d cells (KRAS G12D); in test [2]; in test [3]; in the test with SW620 cells (KRAS G12V); in test [4]) was less than 100 nM each time.

For `CCN(c1nc(OC[C@@]23CCCN2C[C@H](F)C3)nc2c(F)c(-c3ccc(F)c4sc(N)c(C#N)c34)c(C(F)(F)F)cc12)[C@H]1CCN(C(=O)[C@@H](C)CF)C1` (atropisomer, axis not shown) [Compound 710], the 50% inhibitory concentration (IC50) in test [1] is 100 to 1000 nM; with GP2d cells (KRAS G12D), less than 100 nM; in test [2], less than 100 nM; in test [3], less than 100 nM; in the test on SW620 cells (KRAS G12V), less than 100 nM; in test [4] it was less than 100 nM.

As to `CCN(c1nc(OC[C@@]23CCCN2C[C@H](F)C3)nc2c(F)c(-c3ccc(F)c4sc(N)c(C#N)c34)c(C(F)(F)F)cc12)[C@H]1C[C@@H](COC)N(C(=O)N(C)C)C1` (atropisomer, axis not shown) [Compound 713], the IC50 was 100 to 1000 nM in test [1]; less than 100 nM in the test with GP2d cells (KRAS G12D); 100 to 1000 nM in test [2]; 100 to 1000 nM in test [3]; less than 100 nM in the test with SW620 cells (KRAS G12V); 100 to 1000 nM in test [4].

In the case of `CCN(c1nc(OC[C@@]23CCCN2C[C@H](F)C3)nc2c(F)c(-c3ccc(F)c4sc(N)c(C#N)c34)c(C(F)(F)F)cc12)[C@H]1C[C@@H](COC)N(C(=O)OC)C1` (atropisomer, axis not shown) [Compound 714], the IC50 in test [1] is 100 to 1000 nM; with GP2d cells (KRAS G12D), less than 100 nM; in test [2], 100 to 1000 nM; in test [3] it was 100 to 1000 nM; in the test on SW620 cells (KRAS G12V) it was less than 100 nM; in test [4] it was 100 to 1000 nM.

Consider `COC(=O)N1CC[C@H]2[C@@H]1CN2c1nc(OC[C@@]23CCCN2C[C@H](F)C3)nc2c(F)c(-c3ccc(F)c4sc(N)c(C#N)c34)c(C(F)(F)F)cc12` (atropisomer, axis not shown) [Compound 716], for which the half-maximal inhibitory concentration (IC50) in test [1] was greater than 10000 nM; in the test on GP2d cells (KRAS G12D) it was less than 100 nM; in test [2], 1000 to 10000 nM; in test [3] it was greater than 10000 nM; in the test on SW620 cells (KRAS G12V) it was 100 to 1000 nM; in test [4] it was 1000 to 10000 nM.

As for `CCN(c1nc(OC[C@@]23CCCN2C[C@H](F)C3)nc2c(F)c(-c3ccc(F)c4sc(N)c(C#N)c34)c(C(F)(F)F)cc12)[C@H]1C[C@H](COC)N(C(=O)N(C)C)C1` (atropisomer, axis not shown) [Compound 717], the IC50 in test [1] is 100 to 1000 nM; in the test with GP2d cells (KRAS G12D), less than 100 nM; in test [2], 100 to 1000 nM; in test [3], 100 to 1000 nM; in the test on SW620 cells (KRAS G12V), less than 100 nM; in test [4] it was 100 to 1000 nM.

With `CCN(c1nc(OC[C@@]23CCCN2C[C@H](F)C3)nc2c(F)c(-c3ccc(F)c4sc(N)c(C#N)c34)c(C(F)(F)F)cc12)[C@H]1C[C@H](COC)N(C(=O)OC)C1` (atropisomer, axis not shown) [Compound 718], the concentration for half-maximal inhibition (IC50) (in test [1]; in the test with GP2d cells (KRAS G12D); in test [2]; in test [3]; in the test with SW620 cells (KRAS G12V); in test [4]) was less than 100 nM each time.

Regarding `CCN(c1nc(OC[C@@]23CCCN2C[C@H](F)C3)nc2c(F)c(-c3ccc(F)c4sc(N)c(C#N)c34)c(C(F)(F)F)cc12)[C@H]1CCN(C(=O)c2cocn2)C1` (atropisomer, axis not shown) [Compound 719], the 50% inhibitory concentration (IC50) (in test [1]; with GP2d cells (KRAS G12D); in test [2]; in test [3]; in the test on SW620 cells (KRAS G12V); in test [4]) was less than 100 nM throughout.

With `CCN(c1nc(OC[C@@]23CCCN2C[C@H](F)C3)nc2c(F)c(-c3ccc(F)c4sc(N)c(C#N)c34)c(C(F)(F)F)cc12)[C@H]1CCN(C(=O)OC2CCN(C(C)=O)CC2)C1` (atropisomer, axis not shown) [Compound 720], the IC50 (in test [1]; in the test with GP2d cells (KRAS G12D); in test [2]; in test [3]; in the test on SW620 cells (KRAS G12V); in test [4]) was less than 100 nM in each case.

For `CCN(c1nc(OC[C@@]23CCCN2C[C@H](F)C3)nc2c(F)c(-c3ccc(F)c4sc(N)c(C#N)c34)c(C(F)(F)F)cc12)[C@H]1CCN(C(=O)OC2CN(C(C)=O)C2)C1` (atropisomer, axis not shown) [Compound 721], the IC50 (in test [1]; in the test on GP2d cells (KRAS G12D); in test [2]; in test [3]; in the test with SW620 cells (KRAS G12V); in test [4]) was less than 100 nM throughout.

For the compound `CCN(c1nc(OC[C@@]23CCCN2C[C@H](F)C3)nc2c(F)c(-c3ccc(F)c4sc(N)c(C#N)c34)c(C(F)(F)F)cc12)[C@H]1CCN(C(=O)c2ccsn2)C1` (atropisomer, axis not shown) [Compound 722], the half-maximal inhibitory concentration (IC50) (in test [1]; in the test on GP2d cells (KRAS G12D); in test [2]; in test [3]; with SW620 cells (KRAS G12V); in test [4]) was less than 100 nM throughout.

`CCN(c1nc(OC[C@@]23CCCN2C[C@H](F)C3)nc2c(F)c(-c3ccc(F)c4sc(N)c(C#N)c34)c(C(F)(F)F)cc12)[C@H]1CCN(C(=O)c2ccnn2C)C1` (atropisomer, axis not shown) [Compound 723]: the IC50 (in test [1]; with GP2d cells (KRAS G12D); in test [2]; in test [3]; in the test on SW620 cells (KRAS G12V); in test [4]) was less than 100 nM each time.

In the case of `CCN(c1nc(OC[C@@]23CCCN2C[C@H](F)C3)nc2c(F)c(-c3ccc(F)c4sc(N)c(C#N)c34)c(C(F)(F)F)cc12)[C@H]1CCN(C(=O)c2ccn(C)n2)C1` (atropisomer, axis not shown) [Compound 724], the half-maximal inhibitory concentration (IC50) (in test [1]; in the test on GP2d cells (KRAS G12D); in test [2]; in test [3]; in the test with SW620 cells (KRAS G12V); in test [4]) was less than 100 nM each time.

With `CCN(c1nc(OC[C@@]23CCCN2C[C@H](F)C3)nc2c(F)c(-c3ccc(F)c4sc(N)c(C#N)c34)c(C(F)(F)F)cc12)[C@H]1CCN(C(=O)c2cn(C)nn2)C1` (atropisomer, axis not shown) [Compound 725], the half-maximal inhibitory concentration (IC50) (in test [1]; in the test on GP2d cells (KRAS G12D); in test [2]; in test [3]; in the test on SW620 cells (KRAS G12V); in test [4]) was less than 100 nM each time.
